In ChEMBL document CHEMBL1125236 (J Med Chem, 1991):
Several values for one entry are separate records, joined by “and”; a condition that tells them apart may be missing. Identical values can stand only once.

Experiments:
[1] = Compound was evaluated for growth inhibition of WI-L2 cells.; type: functional, cell-based; conditions: Homo sapiens, WIL2
[2] = tested on: L1210; test: Compound was evaluated for the growth inhibition of L1210 cells.; type: functional, cell-based; conditions: Mus musculus
[3] = biological target: T1, Dihydrofolate reductase (Homo sapiens, UniProt P00374)
T1 sequence (P00374 whole entry): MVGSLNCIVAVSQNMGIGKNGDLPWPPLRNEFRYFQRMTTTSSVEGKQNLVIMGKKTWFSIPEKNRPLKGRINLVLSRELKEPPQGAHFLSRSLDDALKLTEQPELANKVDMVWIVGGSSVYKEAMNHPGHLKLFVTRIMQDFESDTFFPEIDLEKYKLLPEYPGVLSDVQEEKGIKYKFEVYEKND
Description: Inhibition of dihydrofolate reductase (DHFR) from human cells (WI-L2/M4).

[4] = tested on: L1210; test: In vivo activity against L1210 leukemia cells in mice at a dose of 16 mg/kg and expressed as Survival range in days; type: functional, Mus musculus
[5] = tested on: L1210; test: In vivo activity against L1210 leukemia cells in mice at a dose of 32 mg/kg and expressed as Survival range in days; type: functional, Mus musculus
[6] = tested on: L1210; test: In vivo activity against L1210 leukemia cells in mice at a dose of 32 mg/kg and expressed as percent weight change after 7 days; type: functional, Mus musculus
[7] = tested on: L1210; test: Antitumor activity (T/C) evaluated against L1210 leukemia from the median survival time of treated mice (T) over that of control mice (C) at a dose of 32 mg/kg; type: functional, Mus musculus
[8] = tested on: L1210; test: In vivo activity against L1210 leukemia cells in mice at a dose of 32 mg/kg and expressed as Survival median in days; type: functional, Mus musculus
[9] = tested on: L1210; test: In vivo activity against L1210 leukemia cells in mice at a dose of 8 mg/kg and expressed as Survival median in days; type: functional, Mus musculus
[10] = tested on: L1210; test: Antitumor activity (T/C) evaluated against L1210 leukemia from the median survival time of treated mice (T) over that of control mice (C) at a dose of 16 mg/kg; type: functional, Mus musculus
[11] = tested on: L1210; test: In vivo activity against L1210 leukemia cells in mice at a dose of 8 mg/kg and expressed as percent weight change after 7 days; type: functional, Mus musculus
[12] = tested on: L1210; test: Antitumor activity (T/C) evaluated against L1210 leukemia from the median survival time of treated mice (T) over that of control mice (C) at a dose of 8 mg/kg; type: functional, Mus musculus
[13] = tested on: L1210; test: In vivo activity against L1210 leukemia cells in mice at a dose of 16 mg/kg and expressed as Survival median in days; type: functional, Mus musculus
[14] = tested on: L1210; test: In vivo activity against L1210 leukemia cells in mice at a dose of 8 mg/kg and expressed as Survival range in days; type: functional, Mus musculus
[15] = tested on: L1210; test: In vivo activity against L1210 leukemia cells in mice at a dose of 16 mg/kg and expressed as percent weight change after 7 days; type: functional, Mus musculus
[16] = tested on: L1210; test: In vivo activity against L1210 leukemia cells in mice at a dose of 16 mg/kg and expressed as percent weight change after 7 days as experiment 3; type: functional, Mus musculus
[17] = tested on: L1210; test: In vivo activity against L1210 leukemia cells in mice at a dose of 4 mg/kg and expressed as Survival range in days as experiment 1.; type: functional, Mus musculus
[18] = tested on: L1210; test: In vivo activity against L1210 leukemia cells in mice at a dose of 2 mg/kg and expressed as Survival median in days as experiment 1.; type: functional, Mus musculus
[19] = tested on: L1210; test: In vivo activity against L1210 leukemia cells in mice at a dose of 8 mg/kg and expressed as Survival median in days as experiment 3; type: functional, Mus musculus
[20] = tested on: L1210; test: Antitumor activity (T/C) evaluated against L1210 leukemia from the median survival time of treated mice (T) over that of control mice (C) at a dose of 4 mg/kg as experiment 3; type: functional, Mus musculus
[21] = tested on: L1210; test: In vivo activity against L1210 leukemia cells in mice at a dose of 4 mg/kg and expressed as Survival median in days as experiment 1.; type: functional, Mus musculus
[22] = tested on: L1210; test: In vivo activity against L1210 leukemia cells in mice at a dose of 20 mg/kg and expressed as percent weight change after 7 days as experiment 2; type: functional, Mus musculus
[23] = tested on: L1210; test: In vivo activity against L1210 leukemia cells in mice at a dose of 8 mg/kg and expressed as Survival median in days as experiment 1.; type: functional, Mus musculus
[24] = tested on: L1210; test: Antitumor activity (T/C) evaluated against L1210 leukemia from the median survival time of treated mice (T) over that of control mice (C) at a dose of 32 mg/kg as experiment 1; type: functional, Mus musculus
[25] = tested on: L1210; test: Antitumor activity (T/C) evaluated against L1210 leukemia from the median survival time of treated mice (T) over that of control mice (C) at a dose of 2 mg/kg as experiment 1; type: functional, Mus musculus
[26] = tested on: L1210; test: In vivo activity against L1210 leukemia cells in mice at a dose of 16 mg/kg and expressed as Survival median in days as experiment 1.; type: functional, Mus musculus
[27] = tested on: L1210; test: Antitumor activity (T/C) evaluated against L1210 leukemia from the median survival time of treated mice (T) over that of control mice (C) at a dose of 20 mg/kg as experiment 2; type: functional, Mus musculus
[28] = tested on: L1210; test: In vivo activity against L1210 leukemia cells in mice at a dose of 32 mg/kg and expressed as Survival median in days as experiment 1.; type: functional, Mus musculus
[29] = tested on: L1210; test: In vivo activity against L1210 leukemia cells in mice at a dose of 32 mg/kg and expressed as percent weight change after 7 days as experiment 1.; type: functional, Mus musculus
[30] = tested on: L1210; test: In vivo activity against L1210 leukemia cells in mice at a dose of 12 mg/kg and expressed as percent weight change after 7 days as experiment 2; type: functional, Mus musculus
[31] = tested on: L1210; test: In vivo activity against L1210 leukemia cells in mice at a dose of 4 mg/kg and expressed as percent weight change after 7 days as experiment 1.; type: functional, Mus musculus
[32] = tested on: L1210; test: In vivo activity against L1210 leukemia cells in mice at a dose of 20 mg/kg and expressed as Survival median in days as experiment 2; type: functional, Mus musculus
[33] = tested on: L1210; test: Antitumor activity (T/C) evaluated against L1210 leukemia from the median survival time of treated mice (T) over that of control mice (C) at a dose of 4 mg/kg as experiment 1; type: functional, Mus musculus
[34] = tested on: L1210; test: In vivo activity against L1210 leukemia cells in mice at a dose of 16 mg/kg and expressed as Survival median in days as experiment 2; type: functional, Mus musculus
[35] = tested on: L1210; test: In vivo activity against L1210 leukemia cells in mice at a dose of 8 mg/kg and expressed as percent weight change after 7 days as experiment 1.; type: functional, Mus musculus
[36] = tested on: L1210; test: Antitumor activity (T/C) evaluated against L1210 leukemia from the median survival time of treated mice (T) over that of control mice (C) at a dose of 12 mg/kg as experiment 3; type: functional, Mus musculus
[37] = tested on: L1210; test: In vivo activity against L1210 leukemia cells in mice at a dose of 2 mg/kg and expressed as percent weight change after 7 days as experiment 1.; type: functional, Mus musculus
[38] = tested on: L1210; test: In vivo activity against L1210 leukemia cells in mice at a dose of 12 mg/kg and expressed as percent weight change after 7 days as experiment 3; type: functional, Mus musculus
[39] = tested on: L1210; test: Antitumor activity (T/C) evaluated against L1210 leukemia from the median survival time of treated mice (T) over that of control mice (C) at a dose of 16 mg/kg as experiment 2; type: functional, Mus musculus
[40] = tested on: L1210; test: Antitumor activity (T/C) evaluated against L1210 leukemia from the median survival time of treated mice (T) over that of control mice (C) at a dose of 16 mg/kg as experiment 1; type: functional, Mus musculus
[41] = tested on: L1210; test: In vivo activity against L1210 leukemia cells in mice at a dose of 16 mg/kg and expressed as percent weight change after 7 days as experiment 2; type: functional, Mus musculus
[42] = tested on: L1210; test: Antitumor activity (T/C) evaluated against L1210 leukemia from the median survival time of treated mice (T) over that of control mice (C) at a dose of 16 mg/kg as experiment 3; type: functional, Mus musculus
[43] = tested on: L1210; test: Antitumor activity (T/C) evaluated against L1210 leukemia from the median survival time of treated mice (T) over that of control mice (C) at a dose of 12 mg/kg as experiment 2; type: functional, Mus musculus
[44] = tested on: L1210; test: In vivo activity against L1210 leukemia cells in mice at a dose of 8 mg/kg and expressed as percent weight change after 7 days as experiment 3; type: functional, Mus musculus
[45] = tested on: L1210; test: In vivo activity against L1210 leukemia cells in mice at a dose of 16 mg/kg and expressed as percent weight change after 7 days as experiment 1.; type: functional, Mus musculus
[46] = tested on: L1210; test: In vivo activity against L1210 leukemia cells in mice at a dose of 12 mg/kg and expressed as Survival median in days as experiment 3; type: functional, Mus musculus
[47] = tested on: L1210; test: In vivo activity against L1210 leukemia cells in mice at a dose of 24 mg/kg and expressed as percent weight change after 7 days as experiment 2; type: functional, Mus musculus
[48] = tested on: L1210; test: In vivo activity against L1210 leukemia cells in mice at a dose of 4 mg/kg and expressed as Survival median in days as experiment 3; type: functional, Mus musculus
[49] = tested on: L1210; test: Antitumor activity (T/C) evaluated against L1210 leukemia from the median survival time of treated mice (T) over that of control mice (C) at a dose of 8 mg/kg as experiment 3; type: functional, Mus musculus
[50] = tested on: L1210; test: In vivo activity against L1210 leukemia cells in mice at a dose of 16 mg/kg and expressed as Survival median in days as experiment 3; type: functional, Mus musculus
[51] = tested on: L1210; test: Antitumor activity (T/C) evaluated against L1210 leukemia from the median survival time of treated mice (T) over that of control mice (C) at a dose of 24 mg/kg as experiment 2; type: functional, Mus musculus
[52] = tested on: L1210; test: In vivo activity against L1210 leukemia cells in mice at a dose of 4 mg/kg and expressed as percent weight change after 7 days as experiment 3; type: functional, Mus musculus
[53] = tested on: L1210; test: In vivo activity against L1210 leukemia cells in mice at a dose of 12 mg/kg and expressed as Survival median in days as experiment 2; type: functional, Mus musculus

For `CN(Cc1cnc2nc(N)nc(N)c2n1)c1ccc(C(=O)NC(CCC(=O)Nc2cccc(C(=O)O)c2)C(=O)O)cc1` (stereo unspecified), the IC50 [1] was 2.2 nM, the IC50 [2] was 1.6 nM and the IC50 [3] was 35 nM.

`CN(Cc1cnc2nc(N)nc(N)c2n1)c1ccc(C(=O)NC(CCC(=O)Nc2cccc(B(O)O)c2)C(=O)O)cc1` (stereo unspecified) gave a Survival range [4] of 11 days, a Survival range [5] of 12 days and a weight change % [6] of 5%. It also gave a T/C [7] of 175%, a Survival median [8] of 14 days and a Survival median [9] of 11 days. It also gave a T/C [10] of 150%, a weight change % [11] of 8% and a T/C [12] of 138%. The IC50 [2] was 0.7 nM, the Survival median [13] was 12 days and the Survival range [14] was 9 days. The weight change % [15] was 4% and the IC50 [3] was 30 nM.

For `Nc1nc(N)c2nc(CNc3ccc(C(=O)NC(CCCNC(=O)c4ccccc4C(=O)O)C(=O)O)cc3)cnc2n1` (stereo unspecified), the body weight change % [16] was -3%, the Survival range [17] was 13 days and the Survival median [18] was 13 days. For the same compound, the Survival median [19] was 20 days, the T/C [20] was 213% and the Survival median [21] was 14 days. It also gave a weight change % [22] of -2%, a Survival median [23] of 15 days and a T/C [24] of 138%. It also gave an IC50 [1] of 48 nM, a T/C [25] of 163% and a Survival median [26] of 18 days. For the same compound, the T/C [27] was >263%, the Survival median [28] was 11 days and the weight change % [29] was -11%. For the same compound, the weight change % [30] was 1%, the weight change % [31] was -3% and the Survival median [32] was >21 days. It also gave a T/C [33] of 175%, a Survival median [34] of 18 days and a weight change % [35] of 4%. The T/C [36] was 275%, the weight change % [37] was -4% and the weight change % [38] was 2%. The T/C [39] was 225%, the T/C [40] was 188% and 225% and the weight change % [41] was 1%. It also gave a T/C [42] of 300%, a T/C [43] of 188% and a weight change % [44] of 4%. It also gave a weight change % [45] of -5%, a Survival median [46] of 22 days and a weight change % [47] of -3%. For the same compound, the Survival median [48] was 17 days, the T/C [49] was 250% and the Survival median [50] was 24 days. It also gave a T/C [51] of 250%, a weight change % [52] of 8% and a Survival median [53] of 15 days.
